Here are results for four compounds from patent US5010073A, “Use of liposomes as carriers for metalloporphyrins” (The Rockefeller University, priority 1990, dated 1991).

Read-outs that look alike come from different tables or passages of the source.

The test system of data set [1] is plasma bilirubin levels. The data set is described as follows: Lowering plasma bilirubin levels in newborn animals. Format: in vivo.
For data set [2], the system named is heme oxygenase. The data set is described as follows: Inhibition of splenic and hepatic heme oxygenase after injection. It is filed as in vivo, rat. The following applies: single animal; for Heme Oxygenase activity Liver: saline 2.3 ± 0.6; for Heme Oxygenase activity Spleen: saline 9.0 ± 2.4. Here is the method: Liver were perfused in situ with ice cold 0.9% NaCl and subsequently homogenized in 3 volumes of 0.1 M potassium phosphate buffer, pH 7.4, containing 0.25 M sucrose. […] Splenic microsomes were prepared in an identical manner. The cytosolic fraction obtained from the liver of control (saline-injected) animals served as a source of bilirubin reductase for subsequent analysis of heme oxygenase activity. Assays for heme oxygenase and metalloporphyrin concentration were performed on fresh microsomes whenever possible. Otherwise, microsomal fractions were kept at liquid nitrogen temperatures until the time of assay.
The activity of heme oxygenase in tissues was determined as described by Drummond and Kappas, supra. […] Standard settings for the two metalloporphyrins examined were: […]
The rats were sacrificed at varying times after injection for measurements of hepatic and splenic heme oxygenase activity.

The conditions of data set [3]: cited from earlier work.
The test system of data set [4] is bilirubin levels. The following applies: NEONATAL MONKEY; dose 24-185 umoles/kg; cited from earlier work.
The test system of data set [5] is heme oxygenase. The settings on record: rats, cited from earlier work.
Data set [6] has as its system bilirubin levels. The following applies: cited from earlier work.
Data set [7] has as its system bilirubin levels. The following applies: cited from earlier work. This is another data set of the same source.
Data set [8] has as its system heme oxygenase. The data set is described as follows: Efficacy as heme oxygenase inhibitors (statements in words). The settings on record: at the same concentrations as SnPP.
A short description of data set [9]: Toxicity of chromium porphyrin preparations. It is filed as in vivo. The following applies: aqueous: isotonic aqueous media at the same level as SnPP; liposomal: at effective dosage levels.

For the compound `C=CC1=C(C)c2cc3[n-]c(cc4[n-]c(cc5nc(cc1n2)C(C)=C5C=C)c(C)c4CCC(=O)[O-])c(CCC(=O)[O-])c3C.[H+].[H+].[Mn+2]` [MnPP, manganese protoporphyrin], in data set [1], the “lowering plasma bilirubin levels” value was “ineffective”.

Consider `C=Cc1c2[n-]c(c1C)/C=c1\[n-]/c(c(C)c1C=C)=C\c1[n-]c(c(CCC(=O)O)c1C)/C=c1\[n-]c(c(C)c1CCC(=O)O)=C2.[Sn+4]` [SnPP, tin protoporphyrin], for which the “Heme Oxygenase activity Liver” value in [2] (10 μm/kg IV, 16 hrs) was 0.6 nm bilirubin/hr/mg. protein; in data set [2] (10 μm/kg IV, 48 hrs), 1.0 nm bilirubin/hr/mg. protein; in [2] (50 μm/kg IV, 16 hrs), 0.4 nm bilirubin/hr/mg. protein; in data set [2] (50 μm/kg IV, 48 hrs) it was 0.5 nm bilirubin/hr/mg. protein. The “Heme Oxygenase activity Spleen” value in data set [2] (10 μm/kg IV, 16 hrs) is listed as 3.6 nm bilirubin/hr/mg. protein; in [2] (10 μm/kg IV, 48 hrs), 5.9 nm bilirubin/hr/mg. protein; in data set [2] (50 μm/kg IV, 16 hrs), 5.3 nm bilirubin/hr/mg. protein; in [2] (50 μm/kg IV, 48 hrs), 6.3 nm bilirubin/hr/mg. protein. Also, the “CONCENTRATION OF SnPP IN ORGAN @ 24 HOURS, MICROSOMES” value in data set [3] (LIVER, rats, intravenous) is on record as 146-284 pm/mg. protein; in data set [3] (SPLEEN, rats, intravenous) it was 60 -90 pm/mg. protein. In addition, the “concentration of SnPP in the spleen relative to SnPP concentration in the liver” value in data set [3] (rat, in vivo, iv) is recorded as “one-fourth”. Also, the concentration in data set [3] (read-out: CONCENTRATION OF SnPP IN ORGAN @ 24 HOURS, HOMOGENATE, SPLEEN, rats, intravenous, Mean ± SE for 3-4 rats) is 6.5 ± 0.6 µM. Moreover, the “BILIRUBIN/CO REDUCTION (percent)” value in data set [4] is 91%; in data set [6] (ABO INCOMPATIBILITY-MAN, dose 0.5 umoles/kg) it was 21-32%; in [6] (BILIARY CIRRHOSIS-MAN, dose 0.25-2.0 umoles/kg) it was 7-23%; in [6] (GILBERT'S DISEASE-MAN, dose 0.5-1.8 umoles/kg), 29-43%; in data set [6] (NORMAL ADULT-MAN, dose 1-2 umoles/kg), 38-47%; in data set [7] (BILE DUCT LIGATED RAT, dose 100 umoles/kg), 62-70%. For the same compound, the “BILIRUBIN/CO REDUCTION (percent)” value in [7] (NEONATAL GUNN RAT, dose 50 umoles/kg) was 19%; in data set [7] (NEONATAL RAT/HEMATOMA, dose 65 umoles/kg), 25%; in [7] (NORMAL ADULT RAT, dose 10-50 umoles/kg), 24-30%. Moreover, the “HEME OXYGENASE ACTIVITY 24 HOURS AFTER TREATMENT” value in data set [5] (KIDNEY, prior to treatment 1.8 ± 0.2) is reported as 0.6 ± 0.1 nm bilirubin/hr/mg. protein; in [5] (LIVER, prior to treatment 2.7 ± 0,3) it was 0.3 ± 0.04 nm bilirubin/hr/mg. protein; in data set [5] (SPLEEN, prior to treatment 12.4 ± 0.4) it was 2.3 ± 0.3 nm bilirubin/hr/mg. protein. Further, the “inhibition of splenic heme oxygenase” value in data set [5] (following intravenous administration) is reported as 50-75%.

In the case of `C=CC1=C(C)c2cc3[n-]c(cc4nc(cc5[n-]c(cc1n2)c(C)c5C=C)C(C)=C4CCC(=O)O)c(CCC(=O)O)c3C.[Zn+2]` [ZnPP, zinc protoporphyrin], the “efficacy as heme oxygenase inhibitor relative to SnPP” value in [8] is given as “relatively ineffective”. Besides, in [7] (NORMAL ADULT RAT, dose 4-40 umoles/kg (ZnPP)), the “BILIRUBIN/CO REDUCTION (percent)” value is recorded as 20-30%.

As for chromium protoporphyrin [CrPP], the “BILIRUBIN/CO REDUCTION (percent)” value in [7] (NEONATAL RAT, dose 10 umoles/kg (CrPP)) is 32%. Besides, the toxicity entry in data set [9] was “exhibits some toxicity”.
